Results as given in patent US20260373119A1, “NOVEL COMPOUND, AND COMPOSITION FOR PREVENTING OR TREATING HER2-POSITIVE CANCER, COMPRISING SAME” (EWHA UNIVERSITY - INDUSTRY COLLABORATION FOUNDATION, priority 2022, published 2026).

Experiments:
Format in all cases: cell-based
[1] = biological target: T1, ELF3-MED23 protein-protein interaction (Homo sapiens, UniProt Q9ULK4); experiment: SEAP reporter assay, ELF3-MED23 PPI inhibition (293T kidney cells); conditions: HEK-293T; 10 μM
T1 construct: followed by the addition of either the candidate compound or MED23 protein constructs; endogenous in cells; host or cells: 293T kidney cells (MED23 endogenous; GAL4-ELF3 transfected)
T1 sequence (Q9ULK4 1-1368): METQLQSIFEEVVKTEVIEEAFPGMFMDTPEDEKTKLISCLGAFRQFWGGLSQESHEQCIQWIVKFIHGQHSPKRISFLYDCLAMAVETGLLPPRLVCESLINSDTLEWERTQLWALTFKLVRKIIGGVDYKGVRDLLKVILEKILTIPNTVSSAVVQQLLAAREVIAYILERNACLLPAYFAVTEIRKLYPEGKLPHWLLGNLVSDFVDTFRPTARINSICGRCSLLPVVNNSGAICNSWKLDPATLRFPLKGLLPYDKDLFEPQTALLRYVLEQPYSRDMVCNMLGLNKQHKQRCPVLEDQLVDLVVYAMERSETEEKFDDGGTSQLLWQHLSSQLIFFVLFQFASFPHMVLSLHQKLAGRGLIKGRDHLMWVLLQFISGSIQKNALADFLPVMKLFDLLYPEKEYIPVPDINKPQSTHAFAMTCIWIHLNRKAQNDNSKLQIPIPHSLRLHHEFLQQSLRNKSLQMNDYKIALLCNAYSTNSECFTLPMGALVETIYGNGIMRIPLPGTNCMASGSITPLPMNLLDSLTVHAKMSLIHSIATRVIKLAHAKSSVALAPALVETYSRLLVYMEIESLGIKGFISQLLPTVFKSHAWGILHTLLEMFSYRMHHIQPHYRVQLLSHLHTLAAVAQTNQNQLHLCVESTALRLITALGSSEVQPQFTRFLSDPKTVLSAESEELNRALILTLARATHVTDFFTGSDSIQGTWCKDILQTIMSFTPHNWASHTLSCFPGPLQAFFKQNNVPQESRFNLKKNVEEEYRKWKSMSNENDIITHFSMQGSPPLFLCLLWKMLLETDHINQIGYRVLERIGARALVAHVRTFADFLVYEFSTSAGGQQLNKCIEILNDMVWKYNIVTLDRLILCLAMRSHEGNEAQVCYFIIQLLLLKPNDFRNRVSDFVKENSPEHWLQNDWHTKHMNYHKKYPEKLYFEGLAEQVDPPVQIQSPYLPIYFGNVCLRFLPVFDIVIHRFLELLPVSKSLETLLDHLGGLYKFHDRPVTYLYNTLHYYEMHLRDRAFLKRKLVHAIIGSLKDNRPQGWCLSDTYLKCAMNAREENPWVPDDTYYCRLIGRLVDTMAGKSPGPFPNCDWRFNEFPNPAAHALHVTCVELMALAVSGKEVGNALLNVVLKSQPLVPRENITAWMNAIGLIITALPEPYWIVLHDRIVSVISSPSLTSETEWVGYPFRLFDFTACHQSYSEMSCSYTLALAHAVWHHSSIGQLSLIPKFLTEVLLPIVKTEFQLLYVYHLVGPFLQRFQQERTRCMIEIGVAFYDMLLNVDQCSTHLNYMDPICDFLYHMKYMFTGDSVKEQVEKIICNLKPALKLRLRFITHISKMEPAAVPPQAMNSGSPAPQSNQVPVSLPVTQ
Protocol: To verify whether the D400 and H449 residues play a critical role in the ELF3-MED23 protein-protein interaction, a SEAP assay was performed. Specifically, 293T kidney cells were seeded at a density of 5×10^3 cells/well in a 96-well microplate (SPL, Korea) and cultured overnight. Subsequently, the cells were co-transfected with 100 ng of each plasmid using transfection-optimized medium (Welgene, Korea). The plasmids used included the SEAP reporter gene (pG5IL2SX) and GAL4-ELF3 expression vector (pBJ GAL4-ELF3). For transfection, the cells were incubated with WelFectQ (Welgene, Korea) for 3 hours, followed by the addition of either the candidate compound or MED23 protein constructs (pcDNA MED23^WT, K397A, D400A, H449G, and D400A/H449G). The treated cells were incubated for 12 hours. The candidate compound was added in an incubator at 5% CO2 and 37 °C, and the plate was incubated at 65 °C for 3 hours to inactivate all enzymes except SEAP (Secreted Alkaline Phosphatase). A mixture comprising 100 μL of substrate solution prepared with 1.19 μL of 0.1 M 4-methylumbelliferyl phosphate (Sigma, USA), 25 μL of inactivated medium, and 75 μL of double-distilled water was added, followed by the addition of 98.81 μL of 2 M diethanolamine (pH 10, Sigma, USA). The plate was incubated overnight at 37 °C. Subsequently, the fluorescence intensity was measured using a fluorometer (SPECTRAmax […], Molecular Devices, USA) at an excitation wavelength of 360 nm and an emission wavelength of 440 nm.
To further elaborate on the above findings, small molecule compounds that could affect the ELF3-MED23 PPI were designed and synthesized. Specifically, non-essential side chains were removed from gefitnib, and compounds were designed to include both hydrogen bond donors and acceptors for the D400 and H449 residues of MED23, respectively (FIG. 4A). Specifically, chalcones and pyrazolines were selected as core scaffolds, and 25 compounds (11 chalcones and 14 pyrazoline-based compounds) were prepared. The ELF3-MED23 PPI inhibitory activity of all prepared compounds was measured using a SEAP assay.

[2] = test system: HCT15 (HER2-positive colorectal cancer cell line); experiment: antiproliferative effect, HCT15; conditions: Homo sapiens, HCT-15, 72 hours
Protocol: (§1) The antiproliferative effects were measured after treating Compounds 1 to 22 for 72 hours on HCT15 (HER2-positive colorectal cancer cell line), NCI-N87 (HER2-positive gastric cancer cell line), T47D (HER2-negative breast cancer cell line), and HeLa (HER2-negative cervical cancer cell line). As a result, strong antiproliferative effects were generally observed in the NCI-N87 cell line (Table 2).
(§2) The antiproliferative effects of the candidate compound, resulting from HER2 inhibition, were evaluated. Specifically, to confirm the anticancer effects of the candidate compound, cancer cells were seeded at a density of 10^4 cells/well in a 96-well cell culture plate for 20 hours. The cells were starved in serum-free media for 4 hours, followed by replacement with media containing the compound at specified concentrations. The cells were then incubated for 72 hours under conditions of 5% CO2 at 37 °C. Cell viability was determined by adding 5 μL of EZ-CytoX to each well and measuring absorbance at 450 nm. The measurements were performed using an ELISA Microplate Reader (VersaMax, Molecular Devices).

[3] = test system: HeLa (HER2-negative cervical cancer cell line); experiment: antiproliferative effect, HeLa; conditions: Homo sapiens, 72 hours
Protocol: as §1, §2

[4] = test system: T47D (HER2-negative breast cancer cell line); experiment: antiproliferative effect, T47D; conditions: Homo sapiens, 72 hours
Protocol: as §1, §2

[5] = test system: NCI-N87 (HER2-positive gastric cancer cell line); experiment: antiproliferative effect, NCI-N87; conditions: Homo sapiens, NCI-N87; 72 hours; HER2-positive
Protocol: as §1, §2

| SMILES | inhibition at 10 µM [1] | IC50 [2] | IC50 [3] | IC50 [4] | IC50 [5] |
| --- | --- | --- | --- | --- | --- |
| O=C(/C=C/c1ccco1)c1ccccc1O [Compound 8, 3-Furan-2-yl-1-(2-hydroxyphenyl)-propenone] | 50% | > 50 µM | 42.19 ± 0.01 µM | > 50 µM | > 50 µM |
| O=C(/C=C/c1ccc(O)cc1)c1cccc(O)c1 [Compound 5, 3-(4-Hydroxyphenyl)-1-(3-hydroxyphenyl)-propenone] | 60% | 8.97 ± 0.17 µM | 30.02 ± 0.18 µM | 9.04 ± 0.07 µM | 17.82 ± 0.17 µM |
| CC(=O)N1N=C(c2ccccc2O)CC1c1cccs1 (centres unmarked) [Compound 21, 1-[3-(2-Hydroxyphenyl)-5-thiophen-2-yl-4,5-dihydropyrazol-1-yl]-ethanone] | 57% | > 50 µM | > 50 µM | > 50 µM | > 50 µM |
| O=C(/C=C/c1cccs1)c1ccccc1O [Compound 11, 1-(2-Hydroxyphenyl)-3-thiophen-2-yl-propenone] | 50% | > 50 µM | 44.31 ± 0.11 µM | > 50 µM | 47.76 ± 0.22 µM |
| COc1ccc(/C=C/C(=O)c2cccc(O)c2)c2ccccc12 [Compound 3, 1-(3-Hydroxyphenyl)-3-(4-methoxynaphthalen-1-yl)-propenone] | 70% | 7.64 ± 0.09 µM | 9.73 ± 0.04 µM | 1.21 ± 0.02 µM | 3.45 ± 0.05 µM |
| O=C(/C=C/c1ccco1)c1cccc(O)c1 [Compound 1, 3-Furan-2-yl-1-(3-hydroxyphenyl)-propenone] | 86% | 29.66 ± 0.14 µM | 19.5 ± 0.04 µM | 8.48 ± 0.02 µM | 13.5 ± 0.29 µM |
| COc1ccc(/C=C/C(=O)c2ccccc2O)c2ccccc12 [Compound 7, 1-(2-Hydroxyphenyl)-3-(4-methoxynaphthalen-1-yl)-propenone] | 80% | 14.18 ± 0.05 µM | 16.13 ± 0.08 µM | 15.56 ± 0.15 µM | 11.4 ± 0.12 µM |
| O=C(/C=C/c1ccc(Cl)cc1)c1ccccc1O [Compound 10, 3-(4-Chlorophenyl)-1-(2-hydroxyphenyl)-propenone] | 80% | 14.36 ± 0.12 µM | 5.54 ± 0.21 µM | 8.96 ± 0.02 µM | 14.38 ± 0.06 µM |

Now from value to compound:

| inhibition at 10 µM [1] | IC50 [2] | IC50 [3] | IC50 [4] | IC50 [5] | SMILES |
| --- | --- | --- | --- | --- | --- |
| 63% | 40.3 ± 0.51 µM | > 50 µM | > 50 µM | > 50 µM | COc1ccc(C2CC(c3ccccc3O)=NN2C(C)=O)cc1 (centres unmarked) [Compound 22, 1-[3-(2-Hydroxyphenyl)-5-(4-methoxyphenyl)-4,5-dihydropyrazol-1-yl]-ethanone] |
| 41% | 8.51 ± 0.01 µM | 9.85 ± 0.37 µM | 18.9 ± 0.2 µM | 10.7 ± 0.31 µM | COc1ccc(/C=C/C(=O)c2cccc(O)c2)cc1 [Compound 2, 1-(3-Hydroxyphenyl)-3-(4-methoxyphenyl)-propenone] |
| 34% |  |  |  |  | CCC(=O)N1N=C(c2cccc(O)c2)CC1c1cccs1 (centres unmarked) [Compound 24, 1-[3-(3-Hydroxyphenyl)-5-thiophen-2-yl-4,5-dihydropyrazol-1-yl]-propan-1-one] |
| 58% | > 50 µM | > 50 µM | > 50 µM | > 50 µM | COc1ccc(C2CC(c3cccc(O)c3)=NN2C(C)=O)cc1 (centres unmarked) [Compound 13, 1-[3-(3-Hydroxyphenyl)-5-(4-methoxyphenyl)-4,5-dihydropyrazol-1-yl]-ethanone] |
| 39% | > 50 µM | > 50 µM | > 50 µM | > 50 µM | CC(=O)N1N=C(c2ccccc2O)CC1c1ccc(O)cc1 (centres unmarked) [Compound 19, 1-[5-(4-Hydroxyphenyl)-3-(2-hydroxyphenyl)-4,5-dihydropyrazol-1-yl]-ethanone] |
| 14% | 19.5 ± 0.41 µM | 0.69 µM | 5.57 ± 0.26 µM | 42.4 ± 0.86 µM | COc1ccc(C2CC(c3cccc(O)c3)=NN2C(C)=O)c2ccccc12 (centres unmarked) [Compound 14, 1-[3-(3-Hydroxyphenyl)-5-(4-methoxynaphthalen-1-yl)-4,5-dihydropyrazol-1-yl]-ethanone] |
| 45% | > 50 µM | > 50 µM | > 50 µM | > 50 µM | CC(=O)N1N=C(c2ccccc2O)CC1c1ccc(Cl)cc1 (centres unmarked) [Compound 20, 1-[5-(4-Chlorophenyl)-3-(2-hydroxyphenyl)-4,5-dihydropyrazol-1-yl]-ethanone] |
| 87% |  |  |  |  | CCC(=O)N1N=C(c2cccc(O)c2)CC1c1ccc(OC)cc1 (centres unmarked) [Compound 23, 1-[3-(3-Hydroxyphenyl)-5-(4-methoxyphenyl)-4,5-dihydropyrazol-1-yl]-propan-1-one] |
| 58% | > 50 µM | > 50 µM | > 50 µM | > 50 µM | CC(=O)N1N=C(c2cccc(O)c2)CC1c1ccco1 (centres unmarked) [Compound 12, 1-[5-Furan-2-yl-3-(3-hydroxyphenyl)-4,5-dihydropyrazol-1-yl]-ethanone] |
| 42% |  |  |  |  | CCC(=O)N1N=C(c2cccc(O)c2)CC1c1ccc(Cl)cc1 (centres unmarked) [Compound 25, 1-[5-(4-Chlorophenyl)-3-(3-hydroxyphenyl)-4,5-dihydropyrazol-1-yl]-propan-1-one] |
| 90% | > 50 µM | > 50 µM | > 50 µM | 44.9 ± 0.8 µM | COc1ccc(/C=C/C(=O)c2ccccc2O)cc1 [Compound 6, 1-(2-Hydroxyphenyl)-3-(4-methoxyphenyl)-propenone] |
